Where “and” joins values, the source holds several entries; their conditions need not be identical. Identical values can stand only once. Entries after “also recorded” stand apart in the source; their conditions may differ. Like-named read-outs stand apart in the source and are kept apart here.
Columns and labels:
NCI-N87 cells = assay: MTT viability assay, NCI-N87 gastric cancer cells; assay type: cell-based, human; conditions: 250 nM
Text: (§1) FIGS. 8A, 8B. The effect of MBQ-167 on survival and PAK activity in NCI-N87 gastric cancer cells.

[1] = system: GFP-HER2-BM, MDA-MB-468, Hs578t, Mia-PaCa-2, SKOV3, AGS, NCI-N87, SH-SY5Y cells; assay: Bright field cell phenotype, other mesenchymal cancer cell lines; assay type: cell-based, human; conditions: 250 or 500 nM, 24 h
Experimental: FIG. 9. Human cancer cell phenotype following MBQ-167 treatment. Triple negative breast cancer (MDA-MB-468), aggressive pancreatic (Mia PaCa-2), ovarian (SKVO3), gastric carcinoma (AGS and NCI-N87) cell lines and a neuroblastoma (SH-SY5Y) cell line were treated with 0, 250 or 500 nM MBQ-167 for 24 h; Representative bright field images are shown for each cell line.
(§2) Human breast cancer cells were visualized by bright field microscopy following MBQ-167 treatment. At ≥100 nM, starting at six hours, MBQ-167 induced a loss of polarity in metastatic breast cancer cells. […] On the other hand, non-cancer mammary epithelial MCF10A and epithelial breast cancer MCF-7 cells were resistant to MBQ-167 and remained polarized and attached to each other and the substratum (FIG. 2A).

[2] = system: MCF10A mammary epithelial cells; assay: Cell viability assay (CellTiter 96 / MTT), MCF10A; conditions: 120 h
[3] = system: p38-MAPK, p42/44 MAPK, Akt; assay: Western blot of MAPK and Akt signaling, MDA-MB-231; assay type: cell-based, human; conditions: 250 nM, 24 h
Text: FIGS. 13A, 13B. MAPK and Akt signaling in MDA-MB-231 cells. […] Representative western blots of N=3 are shown.

MDA-MB-231 cells [4] = assay: Cell viability assay (CellTiter 96 / MTT), MDA-MB-231
PAK1 and PAK4 = assay: Western blot of PAK activity, NCI-N87 gastric cancer cells; assay type: cell-based, human; conditions: NCI-N87, 250 or 500 nM; listed as MBQ-167
Text: as §1

Cdc42 [5] = biological target: T1, Cdc42 (Homo sapiens, UniProt P60953); assay: G-LISA Cdc42 activity, GFP-HER2-BM cells; assay type: cell-based; set-up: endogenous in cells; host or cells: MDA-MB-231; conditions: 250 nM, 24 h
T1 sequence (P60953 whole entry): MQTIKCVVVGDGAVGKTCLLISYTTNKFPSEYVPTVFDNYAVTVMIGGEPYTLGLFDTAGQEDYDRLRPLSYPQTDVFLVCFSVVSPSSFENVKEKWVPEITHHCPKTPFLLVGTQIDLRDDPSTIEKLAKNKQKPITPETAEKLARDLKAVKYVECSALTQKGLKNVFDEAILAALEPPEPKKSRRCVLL

Rho = Rho activation pulldown (Rhotekin), GFP-HER2-BM cells; conditions: 24 h, listed as MBQ-167
MDA-MB-231 cells [6] = assay: Transwell cell migration assay, MDA-MB-231; conditions: 250 and 500 nM, attached population
[7] = Liver enzyme assays (ALP, ALT) after necropsy; assay type: in vivo, nude mice; conditions: listed as MBQ-167
Text: . Mammary fatpad tumors were established in nude mice by inoculating 5×10^5 GFP-HER2-BM cells; […]; FIG. 6B, Representative fluorescence micrographs of lungs, spleens, and kidneys from vehicle or MBQ-167 treated mice following necropsy; […]; Following necropsy, livers were harvested, lysed and subjected to FIG. 6D, ALP activity or FIG. 6E, ALT activity assays; N=4, error bars represent ±S.E.M.
The mice from this study were also examined once a week for potential toxicity. […]. At necropsy, livers were harvested, lysed and subjected to liver enzyme assays as a test for potential toxic effects. […]. Frozen stored livers were thawed and homogenized to measure alkaline phosphatase (ALP) and alanine transaminase (ALT) activities using colorimetric assay kits from Abeam and Cayman Chemicals respectively, as per manufacturer's instructions.

Cdc42 [8] = biological target: T1, Cdc42; assay: Cdc42 activation pulldown (p21-binding domain of PAK) and western blot, MDA-MB-231 cells; assay type: cell-based; set-up: endogenous in cells; host or cells: MDA-MB-231; conditions: 24 h, detached cells
STAT3 = assay: Western blot of STAT3 phosphorylation (Y705); assay type: cell-based, human; conditions: 24 h, attached and detached MDA-MB-231 and GFP-HER2-BM cells
Text: FIGS. 12A, 12B. Effect of MBQ-167 on STAT3 activation and cell migration in GFP-HER2-BM metastatic cancer cells.

MDA-MB-231 cells [9] = assay: Bright field microscopy of cell polarity, rounding and detachment, MDA-MB-231; assay type: cell-based, human
Experimental: FIGS. 2A, 2B, 2C. Breast cancer cell phenotype following MBQ-167 treatment.
as §2
FIG. 2A; FIG. 2B. […] At ≥100 nM, starting at six hours MBQ-167 induces a loss of polarity and detachment from the substratum in MDA-MB-231 metastatic breast cancer cells but not in MCF-7 non-metastatic human breast cancer cells. 250 nM MBQ-167 results in ˜70% of the cells losing polarity and assuming a rounded phenotype. Higher concentrations of MBQ-167, i.e. 500 nM for 24 h results in a ˜90% loss in cell polarity and detaches from the substratum.

GFP-MDA-MB-231 cells = assay: Annexin V-Cy3-18 staining; assay type: cell-based, human; conditions: 250 or 500 nM, 6 h
Experimental: FIG. 14. Annexin V staining in response to MBQ-167. GFP-MDA-MB-231 cells growing on coverslips were treated with vehicle or MBQ-167 at 250 or 500 nM for 6 h; Cells were fixed in formaldehyde and stained with Annexin V-Cy3-18; Representative fluorescence micrographs are shown; Arrows indicate red fluorescent Annexin V staining at the membranes of apoptotic cells.
Apoptotic cells were detected by fluorescence microscopy of Annexin V-Cy3-18 stained cells as per manufacturer's instructions (Sigma-Aldrich, St Louis, Mo., USA). Briefly, GFP-MDA-MB-231 cells grown on coverslips were treated with vehicle, or 250 or 500 nM MBQ-167 for 6 h and stained with Annexin V-Cy3-18 in binding buffer (10 mM HEPES/NaOH, pH 7.5, 0.14 M NaCl, 2.5 mM CaCl2) for 15 min at room temperature. Coverslips were washed in binding buffer and fixed with 3.7% paraformaldehyde prior to fluorescence microscopy. Images were digitally acquired from an Olympus inverted fluorescence microscope.

For `CCn1c2ccccc2c2cc(-n3nncc3-c3ccccc3)ccc21` [I-1, 9-ethyl-3-(5-phenyl-1H-1,2,3-triazol-1-yl)-9H-carbazole], the “reduction of cell viability” value (NCI-N87 cells; 24 h, listed as MBQ-167) was 55%, the cytotoxicity at […] (NCI-N87 cells; Homo sapiens, NCI-N87, 24 h, read-out: reduction of cell viability) was 50% and the “cell rounding and detachment phenotype” value [1] was “induced this phenotype”. The GI50 ([2]; Homo sapiens, MCF-10A) was 350 nM, the “effect on viability of MCF7 and MCF-10A cells” value ([2]; at the GI50 concentrations of the metastatic cells) was “does not affect the viability” and the “effect on p38-MAPK, p42/44 MAPK and Akt activities” value [3] was “did not affect”. For the same molecule, the cell death (MDA-MB-231 cells [4]; 1000 nM, 120 h, all cell types (MDA-MB-231, GFP-HER2-BM, MCF10A)) was about 100%, the GI50 (MDA-MB-231 cells [4]; 120 h, listed as MBQ-167) was 0.11 µM and the GI50 (MDA-MB-231 cells [4]; Homo sapiens, MDA-MB-231, 120 h, 120 h) was about 0.13 µM. For the same molecule, the GI50 (MDA-MB-231 cells [4]; Homo sapiens, MDA-MB-231, read-out: GI50 (μM) MDA-MB-231, MDA-MB-231) was 0.128 µM, the “effect on PAK activity (phospho-PAK)” value (PAK1 and PAK4) was “inhibits both PAK1 and PAK4 activities; also recorded: significantly decreases” and the “effect on Cdc42 activity” value (Cdc42 [5]) was “inhibits”. The “effect on Rho activity” value (Rho) was “did not affect; also recorded: does not affect”, the “reduction of directed migration” value (MDA-MB-231 cells [6]) was 60-70% and the “liver ALT activity” value ([7]; 10 mg/kg BW) was “significantly increased; also recorded: increases”. The “liver ALP activity” value ([7]; 1 and 10 mg/kg BW) was “does not significantly affect”, the “inhibition of Cdc42 activity” value (Cdc42 [8]; 250 nM, listed as MBQ-167, […]) was 85% and the inhibition at […] (Cdc42 [8]; MDA-MB-231, 250 nM) was 78%. For the same molecule, the “effect on STAT3 activity” value (STAT3) was “decreased STAT3 activity”, the “cells losing polarity and assuming a rounded phenotype” value (MDA-MB-231 cells [9]; 250 nM) was about 70% and the “cell rounding / loss of polarity and detachment from the substratum” value (MDA-MB-231 cells [9]; 500 nM, 24 h, listed as MBQ-167) was ~90% and ~95%. The “concentration inducing loss of polarity” value (MDA-MB-231 cells [9]; starting at six hours) was at least 100 nM and the “Annexin V staining” value (GFP-MDA-MB-231 cells) was “increased Annexin V staining”.

From patent US11390629B2, “1,5-disubstituted 1,2,3-triazoles are inhibitors of Rac/Cdc42 GTPases” (UNIVERSITY OF PUERTO RICO, priority 2016, dated 2022)
